Usually pIC50 stands for −log10 of the IC50, conventionally taken in molar units.

The values below come from patent publication US5728724A, “Benzothiophene compounds” (Eli Lilly and Company, priority 1996, dated 1998).

The subject of experiment [1] is uterus of ovariectomized (OVX) rats. Nature of the experiment: Uterine weight in ovariectomized rats (post-menopausal model, agonist activity). It is filed as in vivo, Sprague Dawley rats. Particulars: daily for 4 days; for change in vivo at 0.1 mg/kg / change in vivo at 1 mg/kg / change in vivo at 10 mg/kg: Rattus norvegicus, po, 96 h, read-out: Uterine Weight (% increase vs. OVX); for Uterine Weight (% increase vs. OVX): oral. Here is the method:
(§1) In the examples illustrating the methods, a post-menopausal model was used in which effects of different treatments upon circulating lipids were determined.
(§2) Seventy-five day old female Sprague Dawley rats (weight range of 200 to 225g) were obtained from Charles River Laboratories (Portage, Mich.). The animals were either bilaterally ovariectomized (OVX) or exposed to a Sham surgical procedure at Charles River Laboratories, and then shipped after one week. Upon arrival, they were housed in metal hanging cages in groups of 3 or 4 per cage and had ad libitum access to food calcium content approximately 0.5%) and water for one week. Room temperature was maintained at 22.2°±1.7° C. with a minimum relative humidity of 40%. The photoperiod in the room was 12 hours light and 12 hours dark.
(§3) Dosing Regimen Tissue Collection. After a one week acclimation period (therefore, two weeks post-OVX) daily dosing with test compound was initiated. […] Animals were dosed daily for 4 days. Following the dosing regimen, animals were weighed and anesthetized with a ketamine: Xylazine (2:1, V:V) mixture and a blood sample was collected by cardiac puncture. The animals were then sacrificed by asphyxiation with CO2, the uterus was removed through a midline incision, and a wet uterine weight was determined.

The test system of experiment [2] is Uterine Eosinophil Peroxidase (EPO). Nature of the experiment: Uterine Eosinophil Peroxidase (EPO) Assay in ovariectomized rats. The format is in vivo, Sprague Dawley rats. Also on record: key: max velocity of A450 increase over a 15 s interval. Particulars: oral, daily for 4 days, OVX rats. The protocol:
as §1, §2, §3
Uterine Eosinophil Peroxidase (EPO) Assay. Uteri were kept at 4° C. until time of enzymatic analysis. The uteri were then homogenized in 50 volumes of 50 mM Tris buffer (pH-8.0) containing 0.005% Triton X-100. Upon addition of 0.01% hydrogen peroxide and 10 mM O-phenylenediamine (final concentrations) in Tris buffer, increase in absorbance was monitored for one minute at 450 nm. The presence of eosonophils in the uterus is an indication of estrogenic activity of a compound. The maximal velocity of a 15 second interval was determined over the initial, linear portion of the reaction curve.

The test system of another experiment is Serum Cholesterol. The experiment in a line: Serum cholesterol analysis in ovariectomized rats. The format is in vivo, Sprague Dawley rats. Particulars: daily for 4 days; for inhibition in vivo at 0.1 mg/kg / inhibition in vivo at 1 mg/kg / inhibition in vivo at 10 mg/kg: Rattus norvegicus, po, 96 h, OVX rats, read-out: Serum Cholesterol (% decrease vs. OVX); for Serum Cholesterol (% decrease vs. OVX): oral. The protocol:
as §1, §2, §3
Cholesterol Analysis. Blood samples were allowed to clot at room temperature for 2 hours, and serum was obtained following centrifugation for 10 minutes at 3000 rpm. Serum cholesterol was determined using a Boehringer Mannheim Diagnostics high performance cholesterol assay. Briefly the cholesterol was oxidized to cholest-4-en-3-one and hydrogen peroxide. The hydrogen peroxide was then reacted with phenol and 4-aminophenazone in the presence of peroxidase to produce a p-quinone imine dye, which was read spectrophotemetrically at 500 nm. Cholesterol concentration was then calculated against a standard curve. The entire assay was automated using a Biomek Automated Workstation.

In experiment [3] the test system is MCF-7 breast adenocarcinoma cells. Nature of the experiment: MCF-7 Proliferation Assay (tritiated thymidine). The format is cell-based. The note with it: 48 hours, tritiated thymidine incorporation; for pIC50: Homo sapiens, MCF7. The protocol:
MCF-7 breast adenocarcinoma cells (ATCC HTB 22) were maintained in MEM (minimal essential medium, phenol red-free, Sigma, St. Louis, Mo.) supplimented with 10% fetal bovine serum (FBS) (V/V), L-glutamine (2 mM), sodium pyruvate (1 mM), HEPES {(N-[2-hydroxyethyl]piperazine-N'-[2-ethanesulfonic acid]10 mM}, non-essential amino acids and bovine insulin (1 ug/mL) (maintenance medium). Ten days prior to assay, MCF-7 cells were switched to maintenance medium supplemented with 10% dextran coated charcoal stripped fetal bovine serum (DCC-FBS) assay medium) in place of 10% FBS to deplete internal stores of steroids. MCF-7 cells were removed from maintenance flasks using cell dissociation medium (Ca++/Mg++ free HBSS (phenol red-free) supplemented with 10 mM HEPES and 2 mM EDTA). Cells were washed twice with assay medium and adjusted to 80,000 cells/mL. Approximately 100 μL (8,000 cells) were added to flat-bottom microculture wells (Costar 3596) and incubated at 37° C. in a 5% CO2 humidified incubator for 48 hours to allow for cell adherence and equilibration after transfer. Serial dilutions of drugs or DMSO as a diluent control were prepared in assay medium and 50 μL transferred to triplicate microcultures followed by 50 μL assay medium for a final volume of 200 μL. After an additional 48 hours at 37° C. in a 5% CO2 humidified incubator, microcultures were pulsed with tritiated thymidine (1 uCi/well) for 4 hours. Cultures were terminated by freezing at -70° C. for 24 hours followed by thawing and harvesting of microcultures using a Skatron Semiautomatic Cell Harvester. Samples were counted by liquid scintillation using a Wallac BetaPlace β counter. Results in Table 2 below show the IC50 for certain compounds of the present invention.
Background: Incorporation of labelled thymidine or its analogues reports DNA synthesis.

pIC50: −log10 of the molar value. Counter-ions that a name gives are not always drawn.

As for `O=C(c1ccc(OCCN2CCCCC2)cc1)c1c(-c2cccc3ccccc23)sc2cc(O)ccc12` [Example 2, [2-(1-Naphthyl)-6-hydroxybenzothien-3-yl][4-[2-(1-piperdinyl)ethoxy]phenyl]methanone], in experiment [1] (0.1 mg/kg), the change in vivo at 0.1 mg/kg worked out at 28.8%. For the same molecule, in experiment [1] (1.0 mg/kg), the change in vivo at 1 mg/kg is 28.1%. Also, the change in vivo at 10 mg/kg in experiment [1] (10.0 mg/kg) came out at 21.2%. The “Uterine EPO (V. max)” value in experiment [2] (0.1 mg/kg) worked out at 4.5; in experiment [2] (1.0 mg/kg), 4.8; in experiment [2] (10.0 mg/kg), 3.6. Besides, the inhibition in vivo at 0.1 mg/kg in the experiment on Serum Cholesterol (0.1 mg/kg) was 56%. The inhibition in vivo at 1 mg/kg with Serum Cholesterol (1.0 mg/kg) worked out at 60.6%. In addition, the inhibition in vivo at 10 mg/kg in the experiment with Serum Cholesterol (10.0 mg/kg) amounted to 70.6%. The molecule also gave a pIC50 in experiment [3] of 9.10.
In the case of `O=C(c1ccc(OCCN2CCCCC2)cc1)c1c(-c2ccc3ccccc3c2)sc2cc(O)ccc12` [Example 4, [2-(2-Naphthyl)-6-hydroxybenzothien-3-yl][4-[2-(1-piperdinyl)ethoxy]phenyl]methanone], the change in vivo at 0.1 mg/kg in experiment [1] (0.1 mg/kg) was found to be 72.7%. The change in vivo at 1 mg/kg in experiment [1] (1.0 mg/kg) is 46.8%. Besides, in experiment [1] (10.0 mg/kg), the change in vivo at 10 mg/kg is 59.5%. Also, the “Uterine EPO (V. max)” value in experiment [2] (0.1 mg/kg) came out at 12.3; in experiment [2] (1.0 mg/kg), 42.9; in experiment [2] (10.0 mg/kg) it was 35.7. In addition, in the experiment with Serum Cholesterol (0.1 mg/kg), the inhibition in vivo at 0.1 mg/kg worked out at 48.1%. Also, the inhibition in vivo at 1 mg/kg with Serum Cholesterol (1.0 mg/kg) worked out at 54.5%. Moreover, in the experiment on Serum Cholesterol (10.0 mg/kg), the inhibition in vivo at 10 mg/kg amounted to 63.6%. The same molecule gave a pIC50 in experiment [3] of 7.10.
Take `COc1ccc2c(C(=O)c3ccc(OCCN4CCCCC4)cc3)c(-c3ccsc3)sc2c1` [Example 8]: the change in vivo at 0.1 mg/kg in experiment [1] (0.1 mg/kg) was determined as 6.6%. Also, the change in vivo at 1 mg/kg in experiment [1] (1.0 mg/kg) stood at 10.3%. Further, the change in vivo at 10 mg/kg in experiment [1] (10.0 mg/kg) was 21.3%. Also, the “Uterine EPO (V. max)” value in experiment [2] (0.1 mg/kg) was determined as 3.0; in experiment [2] (1.0 mg/kg) it was 0.9; in experiment [2] (10.0 mg/kg), 4.2. The inhibition in vivo at 0.1 mg/kg in the experiment on Serum Cholesterol (0.1 mg/kg) was -23.4%. Also, the inhibition in vivo at 1 mg/kg with Serum Cholesterol (1.0 mg/kg) was -3.5%. In addition, the inhibition in vivo at 10 mg/kg in the experiment on Serum Cholesterol (10.0 mg/kg) came out at 35%. The “IC50, MCF-7 proliferation” value in experiment [3] is on record as “Not active at the concentration tested”.
For the molecule `O=C(c1ccc(OCCN2CCCCC2)cc1)c1c(-c2cccs2)sc2cc(O)ccc12` [Example 7, [2-(2-Thienyl)-6-hydroxybenzothien-3-yl][4-[2-(1-piperdinyl)ethoxy]phenyl]methanone], the change in vivo at 0.1 mg/kg in experiment [1] (0.1 mg/kg) is -1.7%. Moreover, the change in vivo at 1 mg/kg in experiment [1] (1.0 mg/kg) came out at 32.4%. Also, the change in vivo at 10 mg/kg in experiment [1] (10.0 mg/kg) was determined as 46.9%. Further, the “Uterine EPO (V. max)” value came out at 1.8 in experiment [2] (0.1 mg/kg), 4.5 in experiment [2] (1.0 mg/kg) and 8.4 in experiment [2] (10.0 mg/kg). In the experiment with Serum Cholesterol (0.1 mg/kg), the inhibition in vivo at 0.1 mg/kg was -18.6%. Besides, the inhibition in vivo at 1 mg/kg in the experiment on Serum Cholesterol (1.0 mg/kg) was -0.9%. Also, the inhibition in vivo at 10 mg/kg in the experiment with Serum Cholesterol (10.0 mg/kg) was found to be 51.4%. Further, the pIC50 in experiment [3] is 7.70.
With `COc1ccc(Cc2sc3cc(OC)ccc3c2C(=O)c2ccc(OCCN3CCCCC3)cc2)cc1` [Example 10, [2-(4-Methoxyphenyl)methyl-6-methoxybenzothien-3-yl][4-[2-(1-piperdinyl)ethoxy]phenyl]methanone], the change in vivo at 0.1 mg/kg in experiment [1] (0.1 mg/kg) was -5.6%. Further, the change in vivo at 1 mg/kg in experiment [1] (1.0 mg/kg) was 39.2%. In addition, the change in vivo at 10 mg/kg in experiment [1] (10.0 mg/kg) stood at 45.2%. The “Uterine EPO (V. max)” value in experiment [2] (0.1 mg/kg) is listed as 6.6; in experiment [2] (1.0 mg/kg) it was 46.2; in experiment [2] (10.0 mg/kg) it was 65.4. Further, in the experiment with Serum Cholesterol (0.1 mg/kg), the inhibition in vivo at 0.1 mg/kg is 10.3%. Also, in the experiment on Serum Cholesterol (1.0 mg/kg), the inhibition in vivo at 1 mg/kg was determined as 49%. The inhibition in vivo at 10 mg/kg with Serum Cholesterol (10.0 mg/kg) was 50%. Further, in experiment [3], the “IC50, MCF-7 proliferation” value is given as “Not active at the concentration tested”.
For the molecule `O=C(c1ccc(OCCN2CCCCC2)cc1)c1c(-c2ccsc2)sc2cc(O)ccc12` [Example 9], the change in vivo at 0.1 mg/kg in experiment [1] (0.1 mg/kg) is 8.8%. Further, the change in vivo at 1 mg/kg in experiment [1] (1.0 mg/kg) stood at 1.2%. Further, the change in vivo at 10 mg/kg in experiment [1] (10.0 mg/kg) worked out at 54.3%. Also, the “Uterine EPO (V. max)” value in experiment [2] (0.1 mg/kg) is on record as 0.9; in experiment [2] (1.0 mg/kg) it was 3.3; in experiment [2] (10.0 mg/kg) it was 2.4. Also, the inhibition in vivo at 0.1 mg/kg in the experiment on Serum Cholesterol (0.1 mg/kg) turned out to be 0.6%. Besides, the inhibition in vivo at 1 mg/kg with Serum Cholesterol (1.0 mg/kg) stood at 29.8%. In addition, in the experiment with Serum Cholesterol (10.0 mg/kg), the inhibition in vivo at 10 mg/kg amounted to 31.9%. In addition, in experiment [3], the pIC50 was 8.00.
Consider `COc1ccc2c(C(=O)c3ccc(OCCN4CCCCC4)cc3)c(-c3cccs3)sc2c1` [Example 5, [2-(2-Thienyl)-6-methoxybenzothien-3-yl][4-[2-(1-piperdinyl)ethoxy]phenyl]methanone], for which the “Uterine Weight (% increase vs. OVX)” value in experiment [1] (1.0 mg/kg) is listed as 1.4%; in experiment [1] (10.0 mg/kg) it was 28.6%. Besides, the change in vivo at 0.1 mg/kg in experiment [1] (0.1 mg/kg) came to 2.4%. The “Uterine EPO (V. max)” value came to 3.0 in experiment [2] (0.1 mg/kg), 3.3 in experiment [2] (1.0 mg/kg) and 4.2 in experiment [2] (10.0 mg/kg). The entries for the “Serum Cholesterol (% decrease vs. OVX)” value in the experiment with Serum Cholesterol (0.1 mg/kg) and in the experiment with Serum Cholesterol (1.0 mg/kg) were 6% and -10.2%, respectively. In addition, in the experiment with Serum Cholesterol (10.0 mg/kg), the inhibition in vivo at 10 mg/kg came to 26.3%. In addition, the “IC50, MCF-7 proliferation” value in experiment [3] is “Not active at the concentration tested”.
For the molecule `COc1ccc2c(C(=O)c3ccc(OCCN4CCCCC4)cc3)c(-c3cccs3)sc2c1` [Example 6, [2-(2-Thienyl)-6-methoxybenzothien-3-yl][4-[2-(1-piperdinyl)ethoxy]phenyl]methanone hydrochloride], the “Uterine Weight (% increase vs. OVX)” value in experiment [1] (0.1 mg/kg, hydrochloride) is listed as 3.4%; in experiment [1] (1.0 mg/kg, hydrochloride), 4.2%; in experiment [1] (10.0 mg/kg, hydrochloride) it was 9.5%. The “Uterine EPO (V. max)” value in experiment [2] (0.1 mg/kg, hydrochloride) came out at 3.3; in experiment [2] (1.0 mg/kg, hydrochloride), 4.8; in experiment [2] (10.0 mg/kg, hydrochloride) it was 4.8. For the same molecule, the “Serum Cholesterol (% decrease vs. OVX)” value with Serum Cholesterol (0.1 mg/kg, hydrochloride) was 23.1%; in the experiment on Serum Cholesterol (1.0 mg/kg, hydrochloride) it was 35.8%; with Serum Cholesterol (10.0 mg/kg, hydrochloride) it was 29.6%.
